Source: US20140350273A1, “PEDIATRIC USES OF CABAZITAXEL” (AVENTIS PHARMA S.A., priority 2012, published 2014)
Read-outs that look alike come from different tables or passages of the source.

System: human osteosarcoma DM77
Assay type: in vivo
Settings: for Tumor Volume Data (Day 21) Median / ΔT/ΔC % / ΔT/ΔC: day 21; for MTTE / T-C: volume endpoint 1400 mm^3
Protocol: In the reported examples supporting this invention, vials of the clinical formulation of cabazitaxel and docetaxel were used. […] The resultant solution contains 10 mg/mL of cabazitaxel. Stock solution of cabazitaxel was then diluted in 0.9% sodium chloride.
This efficacy may be quantified, for example, as changes in tumor volume for each treated (T) and control (C) group, which are calculated for each animal and each day by subtracting the tumor volume on the day of first treatment (staging day) from the tumor volume on the specified observation day. This allows calculating the tumor growth inhibition: ΔT/ΔC=(median delta T/median delta C)×100. Individual tumor volume changes from baseline are thereafter analyzed by a non-parametric two-way ANOVA-TYPE (with factors: group and repeated days) followed by a post-hoc contrasts analysis, with Bonferroni-Holm adjustment for multiplicity, comparing all treated groups to the control group. […] A probability less than 5% (p<0.05) was considered as significant.
Based on the National Cancer Institute (NCl) standards, a ΔT/ΔC≦40% is the minimal level required to declare activity.
This efficacy may also be quantified by the number of tumor regressions observed after therapy. Individual mice reporting a tumor volume ≦50% of the Day 0 measurement for two consecutive measurements over a seven day period were considered partial responders (PR). Individual mice lacking palpable tumors (<4×4 mm^2 for two consecutive measurements over a seven day period) were classified as complete responders (CR); a CR that persisted until study completion was considered a tumor-free survivor (TFS).
Efficacy could also be determined at study completion, using tumor growth delay (T-C) in days, which is calculated using the median time to endpoint (MTTE) value for each treatment (T) group versus control (C). A Log Rank multiple comparison test with Bonferroni-Holm adjustment for multiplicity was applied on individual TTE to compare the treated groups to the control group.
The efficacy of cabazitaxel in comparison with docetaxel on pediatric patient-derived tumor xenografts was determined experimentally in the following manner:
The animals subjected to the experiment are subcutaneously grafted unilaterally with approximately 30 mg of a tumor fragment from low passage pediatric patient-derived tumor xenografts. The animals are implanted with a human patient-derived pediatric tumor xenografted in immuno-compromised mice (Harlan; nu/nu). Several days post tumor implantation, mice are randomized according to their tumor burden to the different groups of treatments and controls. The agents are dosed intravenously at 5.8, 9.3, 15 or 24.2 mg/kg every 4 days for a total of 3 doses (q4d×3) to mice bearing a tumor burden at start of therapy (day 0) ranged from 125 to 250 mm^3.
Beginning Day 0, animals were observed daily and weighed twice weekly using a digital scale; data including individual and mean gram weights (Mean We±SD), mean percent weight change versus Day 0 were recorded for each group. Animal deaths were recorded daily and designated as drug-related (D), technical (T), tumor related (B), or unknown (U) based on weight loss and gross observation; single agent or combination groups reporting a mean >20% for a period of 7 days and/or >10% mortality were considered above the maximum tolerated dose (MTD) for that treatment on the evaluated regimen.
The selected tumor model, DM77, was a low passage patient-derived tumor xenograft derived from an osteosarcoma taken from the lung of a patient. […]

CC(=O)O[C@@]12CO[C@@H]1C[C@H](O)[C@@]1(C)C(=O)[C@H](O)C3=C(C)[C@@H](OC(=O)[C@H](O)[C@@H](NC(=O)OC(C)(C)C)c4ccccc4)C[C@@](O)([C@@H](OC(=O)c4ccccc4)[C@H]21)C3(C)C [Docetaxel, docetaxel]
#CR (5.8 mg/kg i.v./q4dx3): 0/0/0 | #PR (5.8 mg/kg i.v./q4dx3): 0/0/0 | #TFS (5.8 mg/kg i.v./q4dx3): 0/0/0 | Drug Deaths Total (5.8 mg/kg i.v./q4dx3): 0 | Weight Change at Nadir % (5.8 mg/kg i.v./q4dx3): −6% | Weight Change at Nadir Day (5.8 mg/kg i.v./q4dx3): 11 days | Tumor Volume Data (Day 21) Median (5.8 mg/kg i.v./q4dx3): 300 mm^3 | ΔT/ΔC % (5.8 mg/kg i.v./q4dx3): 18.5% | MTTE (5.8 mg/kg i.v./q4dx3): 53 days | T-C (5.8 mg/kg i.v./q4dx3): 28 days | ΔT/ΔC (5.8 mg/kg q4d×3 IV): 18.5% | tumor volume changes from baseline, Median +/− nMAD (5.8 mg/kg, DAY 4): 47 +/− 47 | tumor volume changes from baseline, Median +/− nMAD (5.8 mg/kg, DAY 7): 73 +/− 23 | tumor volume changes from baseline, Median +/− nMAD (5.8 mg/kg, DAY 11): 122 +/− 56 | tumor volume changes from baseline, Median +/− nMAD (5.8 mg/kg, DAY 14): 129 +/− 63 | tumor volume changes from baseline, Median +/− nMAD (5.8 mg/kg, DAY 18): 169 +/− 116 | tumor volume changes from baseline, Median +/− nMAD (5.8 mg/kg, DAY 21): 169 +/− 103 | tumor volume changes from baseline, Median +/− nMAD (5.8 mg/kg, DAY 25): 217 +/− 151 | tumor volume changes from baseline, Median +/− nMAD (5.8 mg/kg, DAY 28): 290 +/− 198 | tumor volume changes from baseline, Median +/− nMAD (5.8 mg/kg, DAY 32): 332 +/− 266 | tumor volume changes from baseline, Median +/− nMAD (5.8 mg/kg, DAY 35): 342 +/− 250 | tumor volume changes from baseline, Median +/− nMAD (5.8 mg/kg, DAY 39): 342 +/− 121 | tumor volume changes from baseline, Median +/− nMAD (5.8 mg/kg, DAY 42): 401 +/− 169.5 | tumor volume changes from baseline, Median +/− nMAD (5.8 mg/kg, DAY 46): 546 +/− 185.5 | tumor volume changes from baseline, Median +/− nMAD (5.8 mg/kg, DAY 49): 512 +/− 142 | tumor volume changes from baseline, Median +/− nMAD (5.8 mg/kg, DAY 53): 657.5 | tumor volume changes from baseline, Median +/− nMAD (5.8 mg/kg, DAY 56): 875.5 | #CR (9.3 mg/kg i.v./q4dx3): 0/0/0 | #PR (9.3 mg/kg i.v./q4dx3): 0/0/0 | #TFS (9.3 mg/kg i.v./q4dx3): 0/0/0 | Drug Deaths Total (9.3 mg/kg i.v./q4dx3): 0 | Weight Change at Nadir % (9.3 mg/kg i.v./q4dx3): −7% | Weight Change at Nadir Day (9.3 mg/kg i.v./q4dx3): 14 days | Tumor Volume Data (Day 21) Median (9.3 mg/kg i.v./q4dx3): 266 mm^3 | ΔT/ΔC % (9.3 mg/kg i.v./q4dx3): 9.6% | MTTE (9.3 mg/kg i.v./q4dx3): >60 days | T-C (9.3 mg/kg i.v./q4dx3): >35 days | numbers of PR (9.3 mg/kg q4d×3 IV): 0/9 | ΔT/ΔC (9.3 mg/kg q4d×3 IV): 9.6% | tumor volume changes from baseline, Median +/− nMAD (9.3 mg/kg, DAY 4): 87 +/− 40 | tumor volume changes from baseline, Median +/− nMAD (9.3 mg/kg, DAY 7): 87 +/− 42 | tumor volume changes from baseline, Median +/− nMAD (9.3 mg/kg, DAY 11): 96 +/− 77 | tumor volume changes from baseline, Median +/− nMAD (9.3 mg/kg, DAY 14): 96 +/− 69 | tumor volume changes from baseline, Median +/− nMAD (9.3 mg/kg, DAY 18): 96 +/− 69 | tumor volume changes from baseline, Median +/− nMAD (9.3 mg/kg, DAY 21): 88 +/− 74 | tumor volume changes from baseline, Median +/− nMAD (9.3 mg/kg, DAY 25): 124 +/− 93 | tumor volume changes from baseline, Median +/− nMAD (9.3 mg/kg, DAY 28): 124 +/− 171 | tumor volume changes from baseline, Median +/− nMAD (9.3 mg/kg, DAY 32): 154 +/− 201 | tumor volume changes from baseline, Median +/− nMAD (9.3 mg/kg, DAY 35): 169 +/− 235 | tumor volume changes from baseline, Median +/− nMAD (9.3 mg/kg, DAY 39): 202 +/− 268 | tumor volume changes from baseline, Median +/− nMAD (9.3 mg/kg, DAY 42): 309 +/− 375 | tumor volume changes from baseline, Median +/− nMAD (9.3 mg/kg, DAY 46): 309 +/− 375 | tumor volume changes from baseline, Median +/− nMAD (9.3 mg/kg, DAY 49): 424.5 | tumor volume changes from baseline, Median +/− nMAD (9.3 mg/kg, DAY 53): 542 +/− 447.5 | tumor volume changes from baseline, Median +/− nMAD (9.3 mg/kg, DAY 56): 493 +/− 238 | #CR (15 mg/kg i.v./q4dx3): 0 | #PR (15 mg/kg i.v./q4dx3): 3 | #TFS (15 mg/kg i.v./q4dx3): 0 | Drug Deaths Total (15 mg/kg i.v./q4dx3): 0 | Weight Change at Nadir % (15 mg/kg i.v./q4dx3): −14% | Weight Change at Nadir Day (15 mg/kg i.v./q4dx3): 11 days | Tumor Volume Data (Day 21) Median (15 mg/kg i.v./q4dx3): 78 mm^3 | ΔT/ΔC % (15 mg/kg i.v./q4dx3): −5.9% | MTTE (15 mg/kg i.v./q4dx3): >60 days | T-C (15 mg/kg i.v./q4dx3): >35 days | tumor volume changes from baseline, Median +/− nMAD (15 mg/kg, DAY 4): 66 +/− 66 | tumor volume changes from baseline, Median +/− nMAD (15 mg/kg, DAY 7): 73 +/− 73 | tumor volume changes from baseline, Median +/− nMAD (15 mg/kg, DAY 11): −41 +/− 41 | tumor volume changes from baseline, Median +/− nMAD (15 mg/kg, DAY 14): −41 +/− 41 | tumor volume changes from baseline, Median +/− nMAD (15 mg/kg, DAY 18): −53 +/− 17 | tumor volume changes from baseline, Median +/− nMAD (15 mg/kg, DAY 21): −54 +/− 12 | tumor volume changes from baseline, Median +/− nMAD (15 mg/kg, DAY 25): −66 +/− 17 | tumor volume changes from baseline, Median +/− nMAD (15 mg/kg, DAY 28): −66 +/− 17 | tumor volume changes from baseline, Median +/− nMAD (15 mg/kg, DAY 32): −66 +/− 17 | tumor volume changes from baseline, Median +/− nMAD (15 mg/kg, DAY 35): −66 +/− 13 | tumor volume changes from baseline, Median +/− nMAD (15 mg/kg, DAY 39): −66 +/− 13 | tumor volume changes from baseline, Median +/− nMAD (15 mg/kg, DAY 42): −66 +/− 13 | tumor volume changes from baseline, Median +/− nMAD (15 mg/kg, DAY 46): −58 +/− 11 | tumor volume changes from baseline, Median +/− nMAD (15 mg/kg, DAY 49): −58 +/− 11 | tumor volume changes from baseline, Median +/− nMAD (15 mg/kg, DAY 53): −58 +/− 11 | tumor volume changes from baseline, Median +/− nMAD (15 mg/kg, DAY 56): −58 +/− 11 | #CR (24.2 mg/kg i.v./q4dx3): 1 | #PR (24.2 mg/kg i.v./q4dx3): 6 | #TFS (24.2 mg/kg i.v./q4dx3): 1 | Drug Deaths Total (24.2 mg/kg i.v./q4dx3): 0 | Weight Change at Nadir % (24.2 mg/kg i.v./q4dx3): −17% | Weight Change at Nadir Day (24.2 mg/kg i.v./q4dx3): 14 days | Tumor Volume Data (Day 21) Median (24.2 mg/kg i.v./q4dx3): 71.5 mm^3 | ΔT/ΔC % (24.2 mg/kg i.v./q4dx3): −6.1% | MTTE (24.2 mg/kg i.v./q4dx3): >60 days | T-C (24.2 mg/kg i.v./q4dx3): >35 days | tumor volume changes from baseline, Median +/− nMAD (24.2 mg/kg, DAY 4): 0 +/− 0 | tumor volume changes from baseline, Median +/− nMAD (24.2 mg/kg, DAY 7): 0 +/− 0 | tumor volume changes from baseline, Median +/− nMAD (24.2 mg/kg, DAY 11): −50 +/− 24 | tumor volume changes from baseline, Median +/− nMAD (24.2 mg/kg, DAY 14): −55.5 +/− 20 | tumor volume changes from baseline, Median +/− nMAD (24.2 mg/kg, DAY 18): −55.5 +/− 20 | tumor volume changes from baseline, Median +/− nMAD (24.2 mg/kg, DAY 21): −55.5 +/− 10.5 | tumor volume changes from baseline, Median +/− nMAD (24.2 mg/kg, DAY 25): −55.5 +/− 10.5 | tumor volume changes from baseline, Median +/− nMAD (24.2 mg/kg, DAY 28): −53.5 +/− 13 | tumor volume changes from baseline, Median +/− nMAD (24.2 mg/kg, DAY 32): −53.5 +/− 33 | tumor volume changes from baseline, Median +/− nMAD (24.2 mg/kg, DAY 35): −57.5 +/− 45.5 | tumor volume changes from baseline, Median +/− nMAD (24.2 mg/kg, DAY 39): −57.5 | tumor volume changes from baseline, Median +/− nMAD (24.2 mg/kg, DAY 42): −57.5 | tumor volume changes from baseline, Median +/− nMAD (24.2 mg/kg, DAY 46): −57.5 | tumor volume changes from baseline, Median +/− nMAD (24.2 mg/kg, DAY 49): −48 +/− 45.5 | tumor volume changes from baseline, Median +/− nMAD (24.2 mg/kg, DAY 53): −48 +/− 69.5 | tumor volume changes from baseline, Median +/− nMAD (24.2 mg/kg, DAY 56): −48 +/− 69.5
